Measured values from patent US9441262B2, “MASP-2, a complement fixing enzyme, and uses for it” (Helion Biotech ApS, priority 1997, dated 2016).

Biological target: T1, MASP-2 (Homo sapiens, UniProt O00187)
T1 construct: applying test samples, e.g., diluted plasma or serum samples; from tissue; host or cells: plasma or serum
Assay: TRIFMA for MASP-2 activity of the MBL/MASP complex (C4 activation on mannan-coated wells)
Assay type: biochemical
Procedure: MASP-2 may be estimated by its capacity to activate the complement system. When C4 is cleaved by MASP-2 an active thiol ester is exposed and C4 becomes covalently attached to nearby nucleophilic groups. A substantial part of the C4b will thus become attached to the coated plastic well and may be detected by anti-C4 antibody. A quantitative TRIFMA for MASP-2 activity was constructed by 1) coating microtitre wells with 1 μg mannan in 100 μl buffer; 2) blocking with Tween-20; 3) applying test samples, e.g., diluted plasma or serum samples; 4) applying purified complement factor C4 at 5 μg/ml; 5) incubate for one hour at 37° C.; 6) applying Eu-labelled anti-C4 antibody; 7) applying enhancement solution; and 8) reading the Eu by time resolved fluorometry. (Estimation by ELISA may be carried out similarly, e.g. by applying biotin-labelled anti-C4 in step 6; 7) apply alkaline phosphatase-labelled avidin; 8) apply substrate; and 9) read the colour intensity). Between each step the plate was incubated at room temperature and washed, except between step 7 and 8. A calibration curve can be constructed using dilutions of one selected normal plasma, arbitrarily said to contain 1 unit of MBL/MASP-2 activity per ml. The assay is carried out at conditions which preclude activation of C4 by the classical or alternative complement activation pathways.

T1 sequence (O00187 445-686 limits assumed): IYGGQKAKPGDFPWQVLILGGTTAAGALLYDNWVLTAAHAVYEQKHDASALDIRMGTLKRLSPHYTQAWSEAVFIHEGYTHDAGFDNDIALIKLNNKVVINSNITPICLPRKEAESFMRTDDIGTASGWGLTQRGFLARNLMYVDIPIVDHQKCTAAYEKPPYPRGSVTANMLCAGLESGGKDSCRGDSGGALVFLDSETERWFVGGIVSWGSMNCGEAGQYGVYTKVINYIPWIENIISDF
T1 sequence (O00187 16-444 partner limits assumed): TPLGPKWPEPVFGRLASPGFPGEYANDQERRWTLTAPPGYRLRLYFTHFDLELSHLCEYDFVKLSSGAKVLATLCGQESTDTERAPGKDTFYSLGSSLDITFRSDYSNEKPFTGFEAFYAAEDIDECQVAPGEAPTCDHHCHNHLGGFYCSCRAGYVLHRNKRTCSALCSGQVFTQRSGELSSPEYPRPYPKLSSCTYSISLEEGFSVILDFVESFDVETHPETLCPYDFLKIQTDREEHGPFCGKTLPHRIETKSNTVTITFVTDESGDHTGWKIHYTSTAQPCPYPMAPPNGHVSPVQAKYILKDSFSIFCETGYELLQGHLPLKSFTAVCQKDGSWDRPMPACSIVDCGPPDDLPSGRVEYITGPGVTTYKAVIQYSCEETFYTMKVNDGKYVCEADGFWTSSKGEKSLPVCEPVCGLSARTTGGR
T1 sequence (P11226 21-248 partner): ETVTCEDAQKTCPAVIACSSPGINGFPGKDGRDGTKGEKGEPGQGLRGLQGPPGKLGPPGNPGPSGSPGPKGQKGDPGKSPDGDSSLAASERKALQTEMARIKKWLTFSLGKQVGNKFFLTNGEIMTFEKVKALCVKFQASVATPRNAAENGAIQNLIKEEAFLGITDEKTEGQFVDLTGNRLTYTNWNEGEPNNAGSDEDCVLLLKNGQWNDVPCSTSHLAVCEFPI

Which “effectiveness as enzyme inhibitor in the TRIFMA for MASP-2 activity” value (shortened to “effectiveness as enzyme inhibitor”) does the source give for `O=S(=O)(F)Cc1ccccc1` [PMSF] here?
Its value is “proved effective”.

Which “effectiveness as enzyme inhibitor” value does the source give for `Cl.NCCc1ccc(S(=O)(=O)F)cc1` [Pefabloc] here?
Its value is “inhibitors of MASP-2 activity”.

How did the “effectiveness as enzyme inhibitor” value turn out when `N=C(N)c1ccccc1` [benzamidine] was run?
Its value is “proved effective”.

And the “activation of C4” value (purified C4 at 5 μg/ml, one hour at 37° C.)?
Its value is “completely inhibited”.
